A melting point compilation (Tetko et al.; mined from patent text by program, amines drawn as free bases though some values may be those of a salt)

First: O=C(O)c1cn(Cc2ccccc2)c2cc(Cl)c(F)cc2c1=O
Second: O=C(O)c1cc2cc(Cl)ccc2nc1NC1(C(=O)O)CCc2ccccc21 (stereo not given)
The melting point of the first is higher: 250 °C for the first, 141 to 144 °C for the second.

Compared with CS(=O)(=O)Nc1ccc(C=CC(=O)O)cc1, CC(=O)N1c2ccc(-c3ccc(C=O)cc3)cc2C(NC=O)CC1C (stereo not given) is lower in melting point: 218 °C for the first, 85.6 °C for the second.

First: Cn1ncnc1COc1nn2c(-c3ccccc3F)nnc2cc1C1(C)CCOCC1
Second: CN(C)c1ncn2c1C[N+]([O-])=C(c1ccccc1F)c1cc(Cl)ccc1-2
The melting point of the first is lower: 191 °C for the first, 203 to 206 °C for the second.

First: Cc1noc(-c2ccc(=O)n3c2-c2sc(-c4ccccc4)cc2SCC3)n1
Second: N#Cc1ccc(C2=Nc3ccc(-c4ccccc4F)cc3NC(=O)C2)s1
The melting point of the first is lower: 183 to 185 °C for the first, greater than 250 °C for the second.

First: CC(C)(C)c1nn(-c2c(Cl)cc(C(F)(F)F)cc2Cl)c(Cl)c1-c1nc(C#N)c(C#N)[nH]1
Second: Cc1ccc2nc(N)nc(N)c2c1-c1cc(C(F)(F)F)cc(C(F)(F)F)c1
The melting point of the first is lower: 118 to 120 °C for the first, 222 to 225 °C for the second.

First: CC(=O)C(C)(C)C(C=C(Cl)C(F)(F)F)OS(C)(=O)=O (stereo not given)
Second: CCOC(=O)C(C)N(c1ccc(S(=O)(=O)c2ccccc2)cc1C(F)(F)F)S(C)(=O)=O (stereo not given)
The melting point of the first is lower: 50 to 52 °C for the first, 121 °C for the second.

Compared with OC1CCCc2cc(F)cc(F)c21 (stereo not given), Cc1n[nH]c(=O)c(-c2c(F)cc(F)cc2F)c1Cc1ccc(Cl)cc1 is higher in melting point: 102 to 103 °C for the first, 212 to 215 °C for the second.

First: Cc1ccc(-c2ccc(CN3CCN(c4ccccc4)CC3)o2)cc1C
Second: O=C(O)c1cccc(-c2ncn(-c3ccc(N4CCCC4)cc3)n2)c1
The melting point of the first is lower: 110 °C for the first, 263 to 265 °C for the second.

First: CCC1CCC(=O)C=C1c1ccc(OCC(=O)O)c(Cl)c1Cl (stereo not given)
Second: CN1Cc2c(C(=O)OC3CCCC3)ncn2-c2cccc(Cl)c2C1=O
The melting point of the first is higher: 164 to 165 °C for the first, 162 to 163 °C for the second.

Compared with CC(=O)NC1CCC2=C(CC1)C(=O)CC=C2 (stereo not given), CCOC(=O)C1CCc2c([nH]c3ccc(N(C)C)cc23)C1 (stereo not given) is lower in melting point: 115 to 116 °C for the first, 100 to 101 °C for the second.

First: CCCOc1ccccc1-c1nc2nc(N)nnc2c(=O)[nH]1
Second: COc1ccccc1-c1n[nH]c2c(NCCO)cc(C)nc12
The melting point of the first is higher: 255 to 256 °C for the first, 193 to 194 °C for the second.

First: NCc1c(Nc2ccccc2)cccc1Oc1ccccc1
Second: CN(c1cnc(-c2ccccc2)c(-c2ccccc2)n1)C1CCc2c(OCC(=O)O)cccc21 (stereo not given)
The melting point of the first is lower: 113 to 116 °C for the first, 182 to 184 °C for the second.

First: CCC(OC)(c1ccc(OCc2ccc3ccccc3n2)c(OC)c1)c1nccs1 (stereo not given)
Second: CCC(C)(CC)c1nnc(NC(=O)c2c(OC)cccc2OC)s1
The melting point of the first is lower: 100 to 102 °C for the first, 208 to 210 °C for the second.

First: Cn1ncc(C(=O)N2CC(F)C2)c1C(=O)Nc1ccn2nc(-c3cccnc3)nc2c1
Second: O=C(Nc1ccc(C(=O)N2Cc3cccn3Cc3ccccc32)cc1)c1ccc2[nH]ccc2c1
The melting point of the first is higher: 247 to 249 °C for the first, 130 to 170 °C for the second.

First: O=C1CSc2nc(C34CC5CC(CC(C5)C3)C4)cn21
Second: O=C(CC1CCCCC1)Nc1c(Cl)ccc2nc(N3CCC(NS(=O)(=O)C(F)(F)F)CC3)ccc12
The melting point of the first is lower: 130 to 132 °C for the first, 187 to 189 °C for the second.

First: CC(C)(C)c1nc(-c2ncn3c2COc2cc(F)ccc2-3)no1
Second: CC(C)(C)c1cc(OCc2ccc(-c3nnn[nH]3)cc2)cc(C(C)(C)C)c1
The melting point of the first is lower: 133 to 135 °C for the first, 253 to 255 °C for the second.

First: CCOC(=O)N1CC(C)(C)CSC1=Nc1ccccc1C(C)C
Second: CCN1C(=O)[C@@H](NC(=O)OC(C)(C)C)COc2ccccc21
The melting point of the first is lower: 84 to 86 °C for the first, 112 °C for the second.

First: O=C1c2ccccc2C(O)N1CCSc1ccncc1 (stereo not given)
Second: C(#Cc1ccncc1)c1ccccc1
The melting point of the first is higher: 112 °C for the first, 51 to 53 °C for the second.

First: COc1ccc(CNC(=O)c2nc3scc(COCc4ccc(C(=O)O)cc4)c3c(=O)[nH]2)cc1
Second: COc1ccc(CNC(=O)c2cccnc2N)cc1
The melting point of the first is higher: 271 to 273 °C for the first, 165 to 166 °C for the second.

First: CCc1[nH]cnc1-c1cc(C(C)(C)C)c(O)c(C(C)(C)C)c1
Second: Cc1cc(Cl)cc(C)c1NC(=O)N(CCC(C)(C)C)Cc1ccc(CC(C)(C)C)cc1
The melting point of the first is higher: 200 to 201 °C for the first, 148 to 150 °C for the second.

First: CCOCCOc1ccc(C(=O)CN(Cc2ccccc2)Cc2ccccc2)cc1C(=O)OC
Second: Cc1c(CO)c2cnnc(NCc3ccccc3)c2n1Cc1ccccc1
The melting point of the first is lower: 57 °C for the first, 238 to 240 °C for the second.

First: CN1C(=O)c2cccc3c(S(C)(=O)=O)ccc1c23
Second: Cn1c2ccccc2c2nc3cccc(CO)c3nc21
The melting point of the first is higher: 216 to 218 °C for the first, 201 °C for the second.

Compared with CC(C)COC(=O)CCC1NCC(=O)N1 (stereo not given), CCOC(Cc1c(N(C(C)=O)C(C)=O)nc(NC(C)=O)[nH]c1=O)OCC is higher in melting point: 50 to 52 °C for the first, 128 to 130 °C for the second.

First: O=C(NCCO)c1cccc(-c2ccc3c(c2)C(Oc2cccc(C(F)(F)F)c2)CC3)c1 (stereo not given)
Second: CCC(CC)CNC(=O)c1cccc(CN2C(=O)C3(COc4cc5c(cc43)CCO5)c3ccccc32)c1 (stereo not given)
The melting point of the first is higher: 157 to 158 °C for the first, 105 to 106 °C for the second.

Compared with C[Si](C)(CCCSCCCNC(=O)n1cc(F)c(=O)[nH]c1=O)c1ccccc1, O=C(O)c1cc(=O)c2c([nH]1)-c1ccccc1SC2 is higher in melting point: 51 to 52 °C for the first, 256 to 257 °C for the second.

Compared with NCCNc1ccc2[nH]ncc2c1, CSc1nnc(-c2ccc(Cl)cc2)o1 is lower in melting point: 150 to 165 °C for the first, 121 to 123 °C for the second.

First: O=C1CN(c2ccccc2)C(=S)N1Cc1ccccc1
Second: CC(C)CCN1C(=O)C(NC(=O)Oc2ccccc2)C(=O)N(c2ccccc2)c2ccccc21 (stereo not given)
The melting point of the first is higher: 103 °C for the first, 70 °C for the second.

Compared with CCOC(=O)C(C)C(NC(C)=O)C(C(C)=O)C(=O)OC (stereo not given), CNC(=O)C(=NOC)c1ccccc1COc1ncc(C)cc1C(=O)OC(C)C is higher in melting point: 93 to 96 °C for the first, 165 to 166 °C for the second.

Compared with CCCC(Cl)COC(=O)c1ccc(-c2ccc(-c3ccc(C(=O)OCC(Cl)CCC)cc3)cc2)cc1 (stereo not given), CCCCCCCOC(=O)Oc1ccc(-c2ccc(C#N)cc2)cc1 is lower in melting point: 129 to 131 °C for the first, 50.2 to 50.5 °C for the second.

Compared with Cc1cccc(C(Oc2ccc3oc(CCCO)cc3c2)c2cocn2)c1 (stereo not given), Nc1cncc(O)c1CCCOc1cccnc1Oc1cccc(Cl)c1 is lower in melting point: 101 to 102 °C for the first, 75 to 90 °C for the second.

Compared with Cc1cc(C)c2nc(C3CC3)n(Cc3ncc(C4(C(=O)O)CC=CC4)cn3)c2n1, CCOC(=O)c1cccc(Nc2nccc(-c3ccnc(Cl)c3)n2)c1 is lower in melting point: 203 to 204 °C for the first, 149 to 150 °C for the second.

Compared with O=C(O)CNC(=O)n1cc(C(=O)c2ccn3c2CSC3c2cccnc2)c2ccc(-c3ccc(F)cc3)cc21 (stereo not given), Cc1ccc(C2(c3ccc(C)cc3)OC(=O)N3CCN(C(=O)Nc4ccc(F)cc4F)CC32)cc1 (stereo not given) is lower in melting point: 255 °C for the first, 120 to 122 °C for the second.

First: C=COCCN1CCC(Nc2nc3ccccc3n2Cc2ccc(F)cc2)CC1
Second: OCCN1C2C=C(c3ccc4ccccc4c3)CC1CC2 (stereo not given)
The melting point of the first is higher: 138 °C for the first, 113 to 114 °C for the second.

First: CC(C)(C)c1ccc(S(=O)(=O)N2c3ccccc3C[C@H]2C(=O)NCc2ccc(CCC(=O)O)cc2)cc1
Second: CCCc1ccc(-c2ccc3c(c2)C=C(C(=O)Nc2ccc(CN(C)C4CCOCC4)cc2)CCS3(=O)=O)cc1
The melting point of the first is lower: 80 to 85 °C for the first, 247 to 250 °C for the second.

First: CCNc1c([N+](=O)[O-])cc2c(=O)c(C(=O)O)cn(-c3cc(N)c(F)cc3F)c2c1C
Second: CCOC(=O)c1cc2c(cn1)[nH]c1c(Br)cc([N+](=O)[O-])cc12
The melting point of the first is lower: 250 to 254 °C for the first, 291 to 292 °C for the second.

First: CCCn1nnn(-c2cc(Cl)c(Cl)cc2Cl)c1=O
Second: CCCCCCCCc1cc2c(s1)-n1c(C)nnc1CN=C2c1ccccc1Cl
The melting point of the first is higher: 89 to 90 °C for the first, 80 to 82 °C for the second.

First: COc1ccc(Br)cc1CN1CCC(=O)C(C(c2ccc(F)cc2)c2ccc(F)cc2)C1 (stereo not given)
Second: O=C(C=Cc1ccc(Oc2ccccc2)cc1)c1ccc(F)cc1
The melting point of the first is higher: 129 to 130 °C for the first, 116 °C for the second.

First: COC(=O)c1cccc(Cc2ccc3[nH]c(-c4ccc5c(c4)OCO5)nc3c2)c1
Second: Cc1nnc(-c2ccc3occ(-c4ccc(SCc5ccccc5)cc4)c3c2)o1
The melting point of the first is lower: 122 to 124 °C for the first, 158 to 159 °C for the second.

Compared with CCCCCCCCCCCCCCCc1[nH]c2ccc(C(=S)OCC)cc2c1C, CCCCOc1ncc(-c2ccco2)cc1-c1nc2c(CC)n(CCOC)nc2c(=O)[nH]1 is higher in melting point: 55 to 60 °C for the first, 154 to 155 °C for the second.

First: CC(C)(C)OC(=O)N1CCC(CN2C(=O)C3(COc4cc5c(cc43)C(C)(C)CO5)c3ccccc32)CC1 (stereo not given)
Second: CC(=Cc1ccccc1)c1cc2c(cc1C)C(C)(C)CCC2(C)C
The melting point of the first is lower: 65 to 75 °C for the first, 75 to 77 °C for the second.

Compared with CC(=O)Oc1ccc(C(=O)OC2C=C(C)C(=O)CC(C)(C)C2O)cc1 (stereo not given), C/C(=C\c1ccc(CO)cc1)c1ccc2c(c1)C(C)(C)CCO2 is lower in melting point: 132 to 133 °C for the first, 80 to 81 °C for the second.

First: COc1ccc(NC2=NN(c3ccccc3)CC2)cc1
Second: CN1CCNC(c2ccccc2)c2cc([N+](=O)[O-])ccc21 (stereo not given)
The melting point of the first is higher: 153 to 154 °C for the first, 96 to 99 °C for the second.

First: COc1ccc(CCNC=C2C(=O)Nc3cc(OC)c(OC)cc32)cc1OC
Second: COc1ccc(-c2cc(CO)c(C)o2)cc1
The melting point of the first is higher: 164 to 166 °C for the first, 62 to 64 °C for the second.

Compared with C[C@H]1[C@H](N2C(=O)c3ccccc3C2=O)C(=O)N1O (relative stereo), CC1(C(=O)O)c2ccccc2-c2ccccc21 is higher in melting point: 94 to 96 °C for the first, 168 to 169 °C for the second.

First: Cc1ccsc1C(=O)Cc1ccc(Cl)cc1[N+](=O)[O-]
Second: CC(C)C1C(=O)OC(=O)N1c1ccc(Cl)cc1 (stereo not given)
The melting point of the first is lower: 105 to 107 °C for the first, 137 to 138 °C for the second.

First: Cc1cc(C2=NN(C(N)=S)[C@H](C)Cc3cc4c(cc32)OCO4)cc(C)c1[N+](=O)[O-]
Second: CC1CC(=O)NN=C1c1ccc(O)cc1 (stereo not given)
The melting point of the first is lower: 228 to 230 °C for the first, 268 to 273 °C for the second.

First: CCC1(CCCN2CCc3sccc3C2)C(=O)Nc2ccccc21 (stereo not given)
Second: NC[C@H]1CNc2cccc(-c3ccccc3Cl)c2O1
The melting point of the first is lower: 130 to 132 °C for the first, 135 °C for the second.

Compared with N=C(NO)C1C=Cc2ccccc2N1C(=O)c1ccccc1 (stereo not given), O=C(Nc1ncco1)C1c2ccccc2Oc2ccccc21 is higher in melting point: 176 to 178 °C for the first, 232 to 235 °C for the second.

Compared with NS(=O)(=O)c1cccc(C2(O)CCC2)c1, C=C(C)OC(=O)N1c2ccc(C)cc2NC(=O)C1(C)C is higher in melting point: 155 to 157 °C for the first, 185 °C for the second.

First: CC(C)CCC(Sc1ccccc1)c1c(O)cc(-c2ccccc2)oc1=O (stereo not given)
Second: Cc1nn(C)c(C(N)=O)c1Cl
The melting point of the first is higher: 144 to 145 °C for the first, 101 °C for the second.
